Laboratory results: ChEMBL document CHEMBL3045199, “Synthesis of some (E)-6-[2-(furan-2-yl)ethenyl]-1,2,4-triazin-5-ones and their biological evaluation as antitumor agents” (2013)

Legend:
Assay type in all cases: functional
MDA-MB-468 = test: Cytotoxicity against Homo sapiens (human) MDA-MB-468 cells assessed as growth inhibition at 10 uM after 24 hr; settings: MDA-MB-468, 24 h, read-out: GI
UO-31 = test: Cytotoxicity against Homo sapiens (human) UO31 cells assessed as growth inhibition at 10 uM after 24 hr; settings: UO-31, 24 h, read-out: GI
T47D = test: Cytotoxicity against Homo sapiens (human) T47D cells assessed as growth inhibition at 10 uM after 24 hr; settings: read-out: GI
MCF7 = test: Cytotoxicity against Homo sapiens (human) MCF7 cells assessed as growth inhibition at 10 uM after 24 hr; settings: MCF7, 24 h, read-out: GI
IGROV-1 = test: Cytotoxicity against Homo sapiens (human) IGROV1 cells assessed as growth inhibition at 10 uM after 24 hr; settings: IGROV-1, 24 h, read-out: GI
SK-MEL-2 = test: Cytotoxicity against Homo sapiens (human) SK-MEL-2 cells assessed as growth inhibition at 10 uM after 24 hr; settings: SK-MEL-2, 24 h, read-out: GI
RXF 393 = test: Cytotoxicity against Homo sapiens (human) RXF393 cells assessed as growth inhibition at 10 uM after 24 hr; settings: RXF 393, 24 h, read-out: GI
HL-60(TB) = test: Cytotoxicity against Homo sapiens (human) HL-60(TB) cells assessed as growth inhibition at 10 uM after 24 hr; settings: HL-60, 24 h, read-out: GI
OVCAR-8 = test: Cytotoxicity against Homo sapiens (human) OVCAR8 cells assessed as growth inhibition at 10 uM after 24 hr; settings: OVCAR-8, 24 h, read-out: GI

Compound | inhibition of growth at 10 µM (MDA-MB-468) [%] | inhibition of growth at 10 µM (UO-31) [%] | inhibition of growth at 10 µM (T47D) [%] | inhibition of growth at 10 µM (MCF7) [%] | inhibition of growth at 10 µM (IGROV-1) [%] | inhibition of growth at 10 µM (SK-MEL-2) [%] | inhibition of growth at 10 µM (RXF 393) [%] | inhibition of growth at 10 µM (HL-60(TB)) [%] | inhibition of growth at 10 µM (OVCAR-8) [%]
O=C(CSc1nc(=O)c(/C=C/c2ccco2)n[nH]1)c1ccc(Cl)cc1 | 57.3 | 33.3 | 38.3 | 80.8 | 80.4 | 42.3 | 62.5 |  | 
O=C1CC(=O)N(c2nc(=O)c(/C=C/c3ccco3)n[nH]2)N1 |  |  |  |  |  |  |  | 54.3 | 
O=c1c(/C=C/c2ccco2)n[nH]c(=S)n1/N=C/c1ccc([N+](=O)[O-])cc1 |  |  |  | 73.1 | 75.6 | 70.3 |  |  | 47.8
Nn1c(=S)[nH]nc(/C=C/c2ccco2)c1=O |  |  |  | 72.7 | 77 | 70.7 |  |  | 59.1
